Measured values as given in PMC9643456, “Matching amino acids membrane preference profile to improve activity of antimicrobial peptides” (Communications Biology, 2022).
Like-named read-outs stand apart in the source and are kept apart here. Square brackets hold non-standard residues; d marks the D form. Peptide text beside a SMILES is read from it. dBta = N[C@H](Cc1csc2ccccc12)C(=O)O

System: human red blood cells
Assay: Hemolytic activity
Type: cell-based
Method: Human red blood cells (Zenbio, North Carolina, USA) and peptides were separately diluted in PBS (blood concentration, 8%). The blood cell and peptide solutions were then mixed in 96-well polyethylene plates (SPL, Gyeonggi-do, Korea) and incubated for 18 h at 37 °C. The final concentration of human red blood cells was 4%, while peptide concentrations were 100 μM, 50 μM, 25 μM, 12.5 μM, 6.25 μM, 3.13 μM, 1.56 μM, and 0.78 μM. After incubation, the plates were centrifuged at 1000 × g for 5 min, and the supernatants were transferred to 96-well polyethylene plates. Hemolysis levels were determined by measuring the absorbance at 540 nm with a SpectraMax plate spectrophotometer (Molecular Devices, California, USA). Control samples were treated with 1% Triton X-100 (for 100% hemolysis) or solution with 0 μM peptide (for 0% hemolysis) and melittin (for positive control). Each experiment was performed in triplicate.

| Compound | Hemolysis percent, 25 μM [%] | Hemolysis percent, 25 μM (red cells of human, 18 h, 25) [%] | Hemolysis percent, 50 μM (red cells of human, 18 h) [%] | Hemolysis percent, 100 μM (red cells of human, 18 h) [%] |
| --- | --- | --- | --- | --- |
| CCCCCCCCCC(=O)N[C@@H](Cc1c[nH]c2ccccc12)C(=O)N[C@H](CC(N)=O)C(=O)N[C@@H](CC(=O)O)C(=O)N[C@@H]1C(=O)NCC(=O)N[C@@H](CCCN)C(=O)N[C@@H](CC(=O)O)C(=O)N[C@H](C)C(=O)N[C@@H](CC(=O)O)C(=O)NCC(=O)N[C@H](CO)C(=O)N[C@@H]([C@H](C)CC(=O)O)C(=O)N[C@@H](CC(=O)c2ccccc2N)C(=O)O[C@@H]1C [Daptomycin, reference compound] | 0.01 ±0.02 | 0.01 | 0.03 | 0.04 ±0.02 |
| CC[C@@H](C)[C@@H](NC(=O)[C@@H](Cc1c[nH]c2ccccc12)NC(=O)[C@@H](CC(C)C)NC(=O)[C@@H](CC(C)C)NC(=O)[C@H](N)Cc1c[nH]c2ccccc12)C(=O)N[C@H](C)C(=O)N[C@H](CC(C)C)C(=O)N[C@H](CCCNC(=N)N)C(=O)N[C@H](CCCCN)C(=O)N[C@H](CCCCN)C(=O)N[C@H](CCCNC(=N)N)C(N)=O [WCopW3] (H-[dW][dL][dL][dW][dI][dA][dL][dR][dK][dK][dR]-NH2) | – | 3.64 | 9.36 | 13.37 |
| CC[C@@H](C)[C@@H](NC(=O)[C@@H](Cc1c[nH]c2ccccc12)NC(=O)[C@@H](CC(C)C)NC(=O)[C@@H](CC(C)C)NC(=O)[C@H](N)Cc1c[nH]c2ccccc12)C(=O)N[C@H](C)C(=O)N[C@H](CC(C)C)C(=O)N[C@H](CCCNC(=N)N)C(=O)N[C@H](CCCCN)C(=O)N[C@H](CCCCN)C(=O)N[C@H](CCCNC(=N)N)C(N)=O [WCopW4] (H-[dW][dL][dL][dW][dI][dA][dL][dR][dK][dK][dR]-NH2) | – | 5.94 | 9.85 | 18.84 |
| CC[C@@H](C)[C@@H](NC(=O)[C@@H](Cc1c[nH]c2ccccc12)NC(=O)[C@@H](CC(C)C)NC(=O)[C@@H](CC(C)C)NC(=O)[C@H](N)Cc1c[nH]c2ccccc12)C(=O)N[C@H](C)C(=O)N[C@H](CC(C)C)C(=O)N[C@H](CCCNC(=N)N)C(=O)N[C@H](CCCCN)C(=O)N[C@H](CCCCN)C(N)=O [WCopW6] (H-[dW][dL][dL][dW][dI][dA][dL][dR][dK][dK]-NH2) | – | 4.12 | 7.05 | 18.06 |
| CC[C@@H](C)[C@@H](NC(=O)[C@@H](Cc1c[nH]c2ccccc12)NC(=O)[C@@H](CC(C)C)NC(=O)[C@@H](CC(C)C)NC(=O)[C@H](N)Cc1c[nH]c2ccccc12)C(=O)N[C@H](C)C(=O)N[C@H](CC(C)C)C(=O)N[C@H](CCCNC(=N)N)C(=O)N[C@H](CCCCN)C(=O)N[C@H](CCCCN)C(N)=O [WCopW7] (H-[dW][dL][dL][dW][dI][dA][dL][dR][dK][dK]-NH2) | – | 7.25 | 10.05 | 14.99 |
| CC[C@@H](C)[C@@H](NC(=O)[C@@H](Cc1c[nH]c2ccccc12)NC(=O)[C@@H](CC(C)C)NC(=O)[C@H](N)CC(C)C)C(=O)N[C@H](C)C(=O)N[C@H](CC(C)C)C(=O)N[C@H](CCCNC(=N)N)C(=O)N[C@H](CCCCN)C(=O)N[C@H](CCCCN)C(=O)N[C@H](CCCNC(=N)N)C(N)=O [WCopW11] (H-[dL][dL][dW][dI][dA][dL][dR][dK][dK][dR]-NH2) | – | 0.94 | 1.02 | 1.08 |
| CC[C@@H](C)[C@@H](NC(=O)[C@@H](Cc1c[nH]c2ccccc12)NC(=O)[C@@H](CC(C)C)NC(=O)[C@H](N)CC(C)C)C(=O)N[C@H](C)C(=O)N[C@H](CC(C)C)C(=O)N[C@H](CCCCN)C(=O)N[C@H](CCCCN)C(=O)N[C@H](CCCCN)C(=O)N[C@H](CCCCN)C(N)=O [WCopW12] (H-[dL][dL][dW][dI][dA][dL][dK][dK][dK][dK]-NH2) | – | 0.98 | 0.98 | 0.98 |
| CC[C@@H](C)[C@@H](NC(=O)[C@@H](Cc1c[nH]c2ccccc12)NC(=O)[C@@H](CC(C)C)NC(=O)[C@@H](CC(C)C)NC(=O)[C@H](N)Cc1csc2ccccc12)C(=O)NCC(=O)N[C@H](CC(C)C)C(=O)N[C@H](CCCNC(=N)N)C(=O)N[C@H](CCCCN)C(=O)N[C@H](CCCCN)C(=O)N[C@H](CCCNC(=N)N)C(N)=O [WCopW16] (H-[dBta][dL][dL][dW][dI]G[dL][dR][dK][dK][dR]-NH2) | – | 2.77 | 5.57 | 10.59 |
| CC[C@@H](C)[C@@H](NC(=O)[C@@H](CC(C)C)NC(=O)[C@H](N)Cc1c[nH]c2ccccc12)C(=O)N[C@H](Cc1c[nH]c2ccccc12)C(=O)N[C@@H](C(=O)N[C@H](Cc1ccc(O)cc1)C(=O)N[C@H](CCCNC(=N)N)C(=O)N[C@H](CCCCN)C(=O)N[C@H](CCCCN)C(=O)N[C@H](CCCNC(=N)N)C(N)=O)C(C)C [WCopW27] (H-[dW][dL][dI][dW][dV][dY][dR][dK][dK][dR]-NH2) | – | 1.82 | 3.95 | 7.43 |
| CC[C@@H](C)[C@@H](NC(=O)[C@@H](Cc1c[nH]c2ccccc12)NC(=O)[C@H](NC(=O)[C@@H](CC(C)C)NC(=O)[C@H](N)Cc1c[nH]c2ccccc12)C(C)C)C(=O)N[C@H](Cc1c[nH]c2ccccc12)C(=O)N[C@H](CCCNC(=N)N)C(=O)N[C@H](CCCNC(=N)N)C(=O)N[C@H](CCCCN)C(=O)N[C@H](CCCNC(=N)N)C(N)=O [WCopW28] (H-[dW][dL][dV][dW][dI][dW][dR][dR][dK][dR]-NH2) | – | 2.33 | 1.97 | 5.26 |
| CC[C@@H](C)[C@@H](NC(=O)[C@@H](Cc1c[nH]c2ccccc12)NC(=O)[C@H](NC(=O)[C@@H](CC(C)C)NC(=O)[C@H](N)Cc1c[nH]c2ccccc12)C(C)C)C(=O)N[C@H](Cc1c[nH]c2ccccc12)C(=O)N[C@H](CCC(N)=O)C(=O)N[C@H](CCCNC(=N)N)C(=O)N[C@H](CCCNC(=N)N)C(=O)N[C@H](CCCNC(=N)N)C(N)=O [WCopW30] (H-[dW][dL][dV][dW][dI][dW][dQ][dR][dR][dR]-NH2) | – | 0.32 | 2.74 | 4.92 |
| CC[C@@H](C)[C@@H](NC(=O)[C@@H](Cc1c[nH]c2ccccc12)NC(=O)[C@H](NC(=O)[C@@H](CC(C)C)NC(=O)[C@H](N)Cc1c[nH]c2ccccc12)C(C)C)C(=O)N[C@H](Cc1c[nH]c2ccccc12)C(=O)N[C@H](CCCNC(=N)N)C(=O)N[C@H](CCCNC(=N)N)C(=O)N[C@H](CCC(N)=O)C(=O)N[C@H](CCCNC(=N)N)C(N)=O [WCopW31] (H-[dW][dL][dV][dW][dI][dW][dR][dR][dQ][dR]-NH2) | – | 0.35 | 1.82 | 6.88 |
| CC[C@@H](C)[C@@H](NC(=O)[C@@H](Cc1c[nH]c2ccccc12)NC(=O)[C@H](NC(=O)[C@@H](CC(C)C)NC(=O)[C@H](N)Cc1c[nH]c2ccccc12)C(C)C)C(=O)N[C@H](Cc1ccc(O)cc1)C(=O)N[C@H](CCCNC(=N)N)C(=O)N[C@H](CCCNC(=N)N)C(=O)N[C@H](CCCNC(=N)N)C(N)=O [WCopW33] (H-[dW][dL][dV][dW][dI][dY][dR][dR][dR]-NH2) | – | 3.49 | 6.35 | 9.93 |
